The subject of one assay is Complex I subunits. As to the kind of experiment: Quantitative proteome analysis of complex I subunits. It counts as cell-based, human. The following applies: A549 cells.
Assay [1] deals with human lung OX- H460 adenocarcinoma. As to the kind of experiment: Orthotopic mouse model of human lung OX- adenocarcinoma. It is filed as in vivo, mice. The following applies: 20 mg/kg daily. An excerpt: All procedures using animals were approved by the Animal Care and Use Ethics Committee of the University of Bordeaux. The NOD/LtSz-scid/IL-2Rychain^null (NSG) mice were produced and housed in the University Bordeaux Segalen animal facility, according to the rules and regulations governed and enforced by the Institutional Animal Care and Use Committee. The animal facility institutional agreement number is A33063916. Animals were included in protocols between 6 and 8 weeks old. Mice were monitored weekly for body weights and were also examined for aspect and behavior during the time-course of the experiments. No changes were noticed except otherwise indicated.
The orthotopic mouse models of OX+ or OX- human LUAD were obtained by using luciferase expressing clones of A549 or H460 lung adenocarcinoma cell lines, respectively. Groups of 5 mice were anesthetized with isoflurane and 1 × 10^6 cells in a volume of 100µl were injected in the lung of 8-weeks NGS mice and imaged 20 min after injection. Bioluminescence imaging (BLI) was performed on a Bioimager following intraperitonal injection of 150 mg/kg of D-Luciferin (Interchim, Montluçon, France). After 10 min, mice were anesthetized by isoflurane and placed into a photon bioimager (BIOSPACE LAB, Paris, France) for about 20 min to acquire luminescence images. Signals were quantified with the M3Vision software (BIOSPACE LAB). […]

A short description of assay [2]: Mass spectrometry lipidomic analysis of blood. It is filed as in vivo, mice. The following applies: 20mg/kg/day, day 7. The method, then:
Extracted samples were dissolved in 100 µL CHC13; 15 µL was injected for analysis. LC separation was achieved using a Bio-Bond 5U C4 column (Dikma). The LC solvents were as follows: buffer A, 95:5 H2O:methanol + 0.03% NH4OH; buffer B, 60:35:5 isopropanol:methanol:H2O + 0.03% NH4OH. A typical LC run consisted of the following for 70 min after injection: 0.1 mL/min 100% buffer A for 5 min, 0.4 mL/min linear gradient from 20% buffer B to 100% buffer B over 50 min, 0.5 mL/min 100% buffer B for 8 min and equilibration with 0.5 mL/min 100% buffer A for 7 min. FFA analysis was performed using a Thermo Scientific Q Exactive Plus fitted with a heated electrospray ionization source. The MS source parameters were 4 kV spray voltage, with a probe temperature of 437.5 °C and capillary temperature of 268.75 °C. Full-scan MS data was collected with a resolution of 70 k, AGC target 1 × 106, maximum (max) injection time of 100 ms and a scan range of 150-2,000 m/z. […] Extracted ion chromatograms for each FFA were generated using a m/z ± 0.01 mass window around the calculated exact mass (i.e., palmitic acid, calculated exact mass for M-H is 255.2330, and the extracted ion chromatogram was 255.22-255.24). Quantification of the FFAs was performed by measuring the area under the peak and dividing this number by the area under the peak for [^13C16]palmitate. […]

Assay [3] has as its system A549 cells. As to the kind of experiment: ATP measurement (CellTiter-Glo). It is filed as cell-based, human. The following applies: 500µM for 48H. The method, then:
The ATP content was performed using the The CellTiter-Glo® Luminescent Cell Viability Assay (Promega) folowing manufacturer's instructions. Luminescence was read on a spectramax M4 Multi-Mode Microplate Reader (Molecular Devices) and values were calculated based on an ATP standard curve. The assay was normalized to cell number.
Background: Cellular ATP, detected with luciferase, serves as a proxy for viable cell number.

Assay [4] concerns respiratory chain complex I. Description: Complex I enzymatic activity assay (spectrophotometric). It counts as biochemical, human. The note with it: A549 cells: 500 µM Trimetazidine 48H; cell homogenate: 100 µM palmitoyl-Coa, 10 min incubation. The method, then: Enzymatic activities were measured spectrophotometrically, in homogenate of cells using the following reaction media: Complex I - 50mM potassium phosphate buffer, 100µM Decylubiquinone. The reaction was started by the addition of 100µM NADH and carried out at 37°C for 15 min in 340nm. After the stabilization of the signal was added 12,5µM Rotenone. Complex II - 25mM potassium phosphate buffer, 1mM KCN, 100µM ATP, 50µM DCPIP, 20mM succinate. The reaction was started by the addition of 100µM decylubiquinone and carried out at 37°C for 15 min in 660nm. Complex III - 100mM potassium phosphate buffer, 50µM cytochrome c, 250µM EDTA. The reaction was started by the addition of 100µM decylubiquinol and carried out at 37°C for 15 min in 550nm. After the stabilization of the signal was added 12,5µg/ml antimycin A. Complex IV - 100uM reduced cytochrome C in 50mM potassium phosphate buffer. The reaction was started by the addition of homogenate of cells and carried out at 37°C for 15 min in 550nm.

For assay [5], the system named is A549 cells. Description: Incorporation of [13C]-palmitate in Krebs cycle by mass spectrometry. It is filed as cell-based, human. The following applies: after 2 hours. The method, then: The incorporation of palmitate in Krebs cycle was followed at the level of citrate using mass spectrometry. A549 cells grown in low glucose DMEM were washed twice with PBS and resuspended in PBS containing 2 mm [U-13C]palmitate with (10 mm) glucose.
The cells were incubated for 2 h at 27 °C before fast filtration preparation of the samples for mass spectrometry analysis. Metabolites were analyzed by ionic-exchange chromatography coupled with tandem mass spectrometry (IC-MS/MS) using the method described by Bolten et al. Retention time on the column and multiple reaction monitoring (MRM) transition of each analyzed metabolite are known by the one skilled in the art.
The ^13C mass isotopomer distribution of intracellular metabolites was determined from relevant isotopic clusters in the IC-MS/MS analysis, according to Kiefer et al. ^13C mass isotopomer distribution measurements were performed using a triple quadrupole mass spectrometer (4000Qtrap, Applied Biosystems). To obtain ^13C-labeling patterns (^13C isotopologues), isotopic clusters were corrected for the natural abundance of isotopes other than 13C, using the in-house software IsoCor (available at MetaSys).

Each structure is given as a SMILES string.

With `COc1ccc(CN2CCNCC2)c(OC)c1OC` [Trimetazidine, 1-(2,3,4-trimethoxybenzyl)piperazine], the “content of 15 Complex I subunits” value with Complex I subunits is “significant reduction”. Further, in the assay on Complex I subunits (after 4 hours of treatment), the “Complex I intermediate-associated protein 30 (CIA30; NDUFAF1)” value is reported as “completely degraded”. Also, the “effect on OX- tumors” value in assay [1] is reported as “no effect”. In assay [2] (OX+ mice), the “Fatty-acids accumulation in the blood” value is listed as “accumulation”. The “level of hydroxylated fatty acids (C18-OH, C18-1OH, C18-2OH, C16OH, C14OH)” value in assay [2] (blood of OX+ mice) is on record as “increased”. The “cellular ATP content” value with A549 cells [3] is “altered”. Moreover, the “respiratory chain complex I activity” value in assay [4] is given as “inhibition”. The “incorporation of [^13C]-palmitate in the Krebs cycle ([^13C]citrate isotopomers)” value in the assay with A549 cells [5] is “significant reduction”.

The values are drawn from patent publication EP3501540A1, “MITOCHONDRIAL TRIFUNCTIONAL PROTEIN (MTP) INHIBITORS FOR USE IN THE TREATMENT OF HIGH MITOCHONDRIAL RESPIRATION (OX+) CANCERS” (UNIVERSITE DE BORDEAUX, priority 2017, dated 2019).
